Laboratory results taken from patent US12037305B2, “Calcium salt polymorphs as anti-inflammatory, immunomodulatory and anti-proliferative agents” (Immunic AG, priority 2018, dated 2024).
Counter-ions that a name gives are not always drawn.

How the values were obtained:
[1] = Dynamic vapor sorption (DVS); format: physicochemical
Description: DVS (SMS): Surface Measurement Systems Ltd. DVS-1 water vapour sorption analyzer. The sample is placed on a platinum sample pan and allowed to equilibrate at a given relative humidity (r.h.), usually 50% r.h. Then, a pre-defined humidity program was started with a scanning rate of 5% r.h. change per hour. First step: from 50% r.h. to 0% r.h. (in case of a possibly hydrate as starting material 50 to 95% r.h.), second step: from 0% to 95% r.h. (in case of a possibly hydrate as starting material 95 to 0% r.h.)

[2] = test system: Human T-Cells; assay: Proliferation assay of human T-cells (PHA-stimulated PBMC, BrdU ELISA); format: cell-based; settings: T-cell, PHA 20 μg/ml, 48 hours
Protocol: Human peripheral blood mononuclear cells (PBMC) were obtained from healthy volunteers and transferred to RPMI1640 cell culture medium containing 10% dialyzed fetal calf serum. 80.000 cells per well were pipetted into a 96-well plate and phytohemagglutinin (PHA) was added in phosphate buffered saline to a final concentration of 20 μg/ml to stimulate T-cell proliferation. Vidofludimus was added in dimethyl sulfoxide (DMSO, final concentration: 0.1 Vol %) to final concentrations ranging from 20 nM to 50 μM. After incubation for 48 hours, cell proliferation was quantified using the “cell proliferation ELISA BrdU” (Roche) according to the manufacturer's instructions. Half maximal inhibition (IC50) was calculated using a 4-parameter sigmoidal curve fit.

Structure (SMILES)	water uptake ([1]; at 95% r.h. (not reversible)) [%]	water uptake ([1]; at about 85% r.h., after desolvation) [%]	IC50 [2] [µM]
COc1cccc(-c2ccc(NC(=O)C3=C(C(=O)O)CCC3)c(F)c2)c1 [Calcium salt]	0.4	0.3	
COc1cccc(-c2ccc(NC(=O)C3=C(C(=O)O)CCC3)c(F)c2)c1 [Vidofludimus, 2-(3-Fluoro-3′-methoxy-biphenyl-4-ylcarbamoyl)-cyclopent-1-enecarboxylic acid]			4.1
